How the values were obtained:
[1] = target: T1, human TRPV4 (hTRPV4/CHO cells) (Homo sapiens, UniProt Q9HBA0); assay: Test Example 1: TRPV4 inhibitory activity (IC50 value), 4α-PDD stimulation, Fluo4 calcium fluorescence (FLIPR TETRA); format: cell-based; details: Test Example 1, 4α-PDD stimulation, read-out: Test 1 IC50
T1 construct: expressed in transfected cells; host or cells: CHO-K1

[2] = target: T1, human TRPV4 (hTRPV4/CHO cells); assay: Test Example 4: TRPV4 inhibitory activity (Ki value), 4α-PDD stimulation, Fluo-3 calcium fluorescence (FDSS 3000); format: cell-based; details: Test Example 4, 4α-PDD stimulation, read-out: Test 4 Ki
Protocol: TRPV4 Inhibitory Activity (Ki Value)
For each compound, TRPV4 inhibitory activity was measured using cells.
(Method) The procedures of evaluating TRPV4 inhibitory activity of a compound are as follows.
(1) TRPV4 inhibitory activity was measured using CHO-K1 cells stably expressing human TRPV4 (hTRPV4/CHO cells).
(2) Cells were subcultured using the MEM-α medium (SIGMA M4526: 500 ml), FBS (HyCloneSH30070.03: 10%), L-Glutamine 200 mmol/L (GIBCO: 4 mmol/L), P/S (nacalai tesque: 1%), G418 (nacalai tesque: 1 mg/mL).
(3) The 96-well plates which hTRPV4/CHO cells were seeded at densities of 2×10^4 cells/well in the culture medium in the day before the experimental day, and cultured in a CO2 incubator in the presence of 5% CO2 at 37° C. for 24 hours was used as assay plates.
(4) Cells were washed with assay buffer (Hank's Balanced Salt Solution 9.8 g, 1 mol/L HEPES (pH7.5), 250 mmol/L probenecid).
(5) Fluo-3, fluorescent dye for Ca influx assay was added to each well, then the assay plate was incubated in a CO2 incubator in the presence of 5% CO2 at 37° C. for one hour (final conc.; 5 μmol/L Fluo-3).
(6) The assay plate was washed with the assay buffer, and the buffer was remained at 30 μL/well. Then the assay plate was incubated for 10 min at 37° C.
(7) 20 μL of diluted compound solution was added to each well of assay plate, and mixed with built-in Pipette and Mixer of the fluorescence analysis system FDSS 3000 (Hamamatsu Photonics).
(8) 50 μL of 4α-PDD solution (concluding 0.1% Pluronic F-127) was applied to each well of assay plate and mixed.
(9) The fluorescent intensity was measured by FDSS 3000 for 8 min from the point of time addition the compound solution, at Ex 480 nm, Em 540 nm wavelength.
TRPV4 inhibitory activity (Ki value) of a compound was calculated according to the following procedure.
(10) In the presence of the compound, the difference between maximal and minimal of fluorescent intensity value for 8 min from just before addition of 4α-PDD solution was calculated, and it was referred as Max-Min value. Max-Min value of the Ruthenium Red at 10 μM was defined as 100% inhibitory activity, Max-Min value in the absence of the compound was defined as 0% inhibitory activity. TRPV4 inhibitory activity of the compound was calculated by the following formula.
(1−(Max−Min value of the compound−100% inhibitory activity)/(0% inhibitory activity−100% inhibitory activity))×100
(11) By the following formula, inhibitory activity was calculated at 10 points with three fold serial dilution, in the final concentration of the compound from 10 μmol/L to 0.5 nmol/L. The IC50 value was calculated by dose-response curve.
100−[(fluorescent intensity in the presence of the compound−fluorescent intensity of back ground)/(total fluorescent intensity−fluorescent intensity of back ground)]×100
(12) In the presence of the compound, activity of 4α-PDD was measured at 9 points with three fold serial dilution from 20 μmol/L. Activity of 4α-PDD was calculated by the following formula.
(Max−Min value of the each 4α-PDD concentration−0% activity)/(100% activity−0% activity))×100
(13) Effective activity was calculated in 4α-PDD the above. The EC50 value was calculated by dose-response curve.
(14) The Ki value of a compound was calculated by the following formula.
Ki=IC50 value/1+([A]/EC50)
[A]: Concentration of agonist (nmol/L)

T1 sequence (Q9HBA0 whole entry): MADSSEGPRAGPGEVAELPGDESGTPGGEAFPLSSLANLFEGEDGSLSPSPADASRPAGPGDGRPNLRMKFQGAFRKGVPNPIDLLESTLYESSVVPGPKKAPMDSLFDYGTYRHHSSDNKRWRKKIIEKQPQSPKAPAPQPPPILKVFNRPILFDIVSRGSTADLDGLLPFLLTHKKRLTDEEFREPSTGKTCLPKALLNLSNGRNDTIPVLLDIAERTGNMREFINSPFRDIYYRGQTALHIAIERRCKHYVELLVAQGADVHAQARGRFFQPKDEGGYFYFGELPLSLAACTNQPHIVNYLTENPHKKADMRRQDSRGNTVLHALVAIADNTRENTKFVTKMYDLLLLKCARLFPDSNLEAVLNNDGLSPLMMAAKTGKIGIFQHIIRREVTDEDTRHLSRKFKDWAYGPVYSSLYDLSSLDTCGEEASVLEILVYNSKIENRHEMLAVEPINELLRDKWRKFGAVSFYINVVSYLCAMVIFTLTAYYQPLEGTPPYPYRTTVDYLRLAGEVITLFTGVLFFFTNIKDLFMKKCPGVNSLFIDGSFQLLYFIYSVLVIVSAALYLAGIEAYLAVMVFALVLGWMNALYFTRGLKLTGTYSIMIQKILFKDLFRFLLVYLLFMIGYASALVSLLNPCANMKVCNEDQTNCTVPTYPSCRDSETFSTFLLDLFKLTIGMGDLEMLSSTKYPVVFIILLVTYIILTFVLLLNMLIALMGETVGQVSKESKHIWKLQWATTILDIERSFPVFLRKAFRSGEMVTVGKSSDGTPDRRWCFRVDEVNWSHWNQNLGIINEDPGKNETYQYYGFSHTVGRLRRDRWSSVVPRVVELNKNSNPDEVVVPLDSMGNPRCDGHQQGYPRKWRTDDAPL

IC50 [1] | Ki [2] | Compound
< 100 nM | < 100 nM | Cc1nc(C)c(-c2csc(NC(=O)C3CCN(c4ccccc4)C3)n2)s1 (centres unmarked) [Compound I-46]
< 100 nM | < 100 nM | Cc1nc(C)c(-c2csc(NC(=O)Cc3ccc(F)c(Cl)c3)n2)s1 [Compound I-49]
100 to 1000 nM | < 100 nM | Cc1nc(C)c(-c2csc(NC(=O)C3CC3)n2)s1 [Compound I-23]
 | 100 to 1000 nM | Cc1nc(C)c(-c2csc(Nc3ccc(Cl)cc3)n2)s1 [II-26]
 | 100 to 1000 nM | COC(C(=O)Nc1nc(-c2sc(C)nc2C)cs1)c1ccccc1 (centres unmarked) [Compound I-5]
 | < 100 nM | Cc1nc(C)c(-c2csc(NC(=O)Cc3ccc(SC(F)(F)F)cc3)n2)s1 [Compound I-22]
 | 100 to 1000 nM | O=C(Cc1ccc(Br)cc1)Nc1nc(-c2cnc(Cl)s2)cs1 [Compound I-16]
 | 100 to 1000 nM | Cc1nc(C)c(-c2csc(NC(=O)CC(C)(C)C)n2)s1 [Compound I-9]
 | < 100 nM | Cc1nc(C)c(-c2csc(NC(=O)[C@H]3CC[C@H](SCC(F)(F)F)C3)n2)s1 (racemic) [Compound I-536]
 | 100 to 1000 nM | Cc1nc(C)c(-c2csc(NC(=O)C3CCC(NCC(F)(F)F)C3)n2)s1 (racemic) [Compound I-39]
 | 100 to 1000 nM | CC(=O)c1ccc(Nc2nc(-c3sc(C)nc3C)cs2)cc1 [II-25]
 | 100 to 1000 nM | O=C(Cc1ccc(C(F)(F)F)cc1)Nc1nc(-c2sc(Cl)nc2Cl)cs1 [Compound I-15]
 | < 100 nM | Cc1nc(C)c(-c2csc(NC(=O)Cc3cc(F)cc(F)c3)n2)s1 [Compound I-52]
 | 100 to 1000 nM | Cc1nc(C)c(-c2csc(NC(=O)CCS(=O)(=O)c3ccccc3)n2)s1 [Compound I-41]

More lines, now with the values behind:

Compound | IC50 [1] | Ki [2]
Cc1nc(C)c(-c2csc(NC(=O)Cc3ccc(S(=O)(=O)C(F)(F)F)cc3)n2)s1 [Compound I-186] | < 100 nM | < 100 nM
Cc1nc(C)c(-c2csc(NC(=O)C(C)C)n2)s1 [Compound I-32] | 100 to 1000 nM | < 100 nM
Cc1nc(C)c(-c2csc(NC(=O)Cc3ccc(Br)cc3)n2)s1 [Compound I-225] | < 100 nM | < 100 nM
Cc1nc(C)c(-c2csc(NC(=O)C(C)(C)c3ccc(Cl)cc3)n2)s1 [Compound I-3] | 100 to 1000 nM | 100 to 1000 nM
Cc1nc(C)c(-c2csc(NC(=O)C(C)c3ccc(Cl)cc3)n2)s1 (centres unmarked) [Compound I-4] | < 100 nM | < 100 nM
Cc1nc(C)c(-c2csc(NC(=O)CC3CC(F)(F)C3(F)F)n2)s1 (centres unmarked) [Compound I-53] | 100 to 1000 nM | 100 to 1000 nM
Cc1nc(C(F)F)sc1-c1csc(NC(=O)Cc2ccc(S(=O)(=O)C(F)(F)F)cc2)n1 [Compound I-29] | 100 to 1000 nM | 100 to 1000 nM
Cc1nc(C)c(-c2csc(NC(=O)Cc3ccc(Cl)c(F)c3)n2)s1 [Compound I-48] |  | < 100 nM
Cc1nc(C)c(-c2csc(NC(=O)c3ccc(F)c(Cl)c3)n2)s1 [Compound I-10] |  | 100 to 1000 nM
COc1ccc(Nc2nc(-c3sc(C)nc3C)cs2)cc1 [II-29] |  | 100 to 1000 nM
Cc1nc(C)c(-c2csc(NC(=O)CC3CCS(=O)(=O)C3)n2)s1 (centres unmarked) [Compound I-51] |  | 1000 to 3000 nM
Cc1nc(C)c(-c2csc(NC(=O)c3ccc(Cl)cc3)n2)s1 [Compound I-227] |  | 100 to 1000 nM
Cc1nc(C)c(-c2csc(NC(=O)C3CCCO3)n2)s1 (centres unmarked) [Compound I-6] |  | 1000 to 3000 nM
Cc1nc(C)c(-c2csc(NC(=O)C3CCC(=O)C3)n2)s1 (racemic) [Compound I-37] |  | 1000 to 3000 nM
Cc1nc(C)c(-c2csc(NC(=O)CC(F)(F)F)n2)s1 [Compound I-45] |  | 100 to 1000 nM
Cc1nc(C)c(-c2csc(NC(=O)Cc3ccccn3)n2)s1 [Compound I-7] |  | 100 to 1000 nM
Cc1nc(C)c(-c2csc(NC(=O)C(C)(C)c3ccccc3)n2)s1 [Compound I-1] |  | 100 to 1000 nM
Cc1nc(C)c(-c2csc(NC(=O)Cc3c[nH]c4ccccc34)n2)s1 [Compound I-44] |  | 100 to 1000 nM
Cc1nc(C)c(-c2csc(NC(=O)COc3ccc(Cl)cc3)n2)s1 [Compound I-229] |  | < 100 nM
Cc1nc(C)c(-c2csc(NC(=O)CC3CC3)n2)s1 [Compound I-33] |  | 100 to 1000 nM
